Patent US20250051391A1, “PEPTIDE INHIBITORS AND METHODS FOR INHIBITING PROTEIN AGGREGATION IN NEURONS AND NEURODEGENERATIVE DISEASES” (THE GOVERNING COUNCIL OF THE UNIVERSITY OF TORONTO, priority 2021, published 2025)
Ends that are not written are not given here.

Key:
[1] = test system: rat primary cortical neurons; test: Rat primary cortical neurons transduced with AAVs, immunofluorescence and immunoblot; assay type: cell-based
Description: Infected neurons were scraped from 6-well dishes and lysed with RIPA buffer containing protease inhibitor cocktail (Roche). The Triton X-100 soluble fraction was then separated from the insoluble pellet by centrifugation. Protein concentration was quantified using the DC protein assay (BioRad). For each condition, 20 μg of protein lysate was run on 4-15% acrylamide gels (BioRad) and subsequently transferred onto a polyvinylidene difluoride (PVDF) membrane. Blots were blocked with 5% skim milk in TBS+0.01% Tween-20 (TBS-T) for 1 h prior to incubation with primary antibody overnight at 4° C. Blots were subsequently washed 3 times in TBS-T for 10 minutes per wash, incubated in species specific secondary antibody for 1 h at 21° C., washed again, and then developed using ECL immunoblotting substrate (Pierce) and visualized on HyBlot CL autoradiographic film (Denville Scientific).
Pregnant rats (E17) of the Sprague-Dawley strain were purchased from Envigo. Embryos were surgically removed from the mothers and cortices dissected in Hanks Balanced salt solution (Gibco). The meninges were removed, and cells were dissociated using a papain dissociation system (Worthington) before being resuspended in Neurobasal medium A supplemented with antibiotic-antimycotic solution (Gibco), L-glutamine substitute (GlutaMAX™; Gibco) and factor B27 (Gibco). Cells were plated on poly-D-lysine coated glass coverslips at a density of 5×10^5 cells/well, or on poly-D-lysine coated 6-well cell culture plates at a density of 2×10^6 cells/well, and incubated at 37° C. in 5% CO2 with half media changes every 3 days. Cells were transduced with AAVs 2 days post-isolation at a multiplicity of infection (MOI) of 3000. Media containing AAV vectors were removed after 72 h and cells were fixed with 4% PFA for immunofluorescence staining or lysed for immunoblotting at 8 days post-isolation.
After fixation, cells were permeabilized with 0.2% Triton X-100 for 15 min, washed 3 times with PBS and then incubated with blocking solution (1% BSA, 22.52 mg/mL glycine, 0.1% Tween-20 in PBS) for 1 h. Primary antibodies were diluted in blocking solution and incubated overnight at 4° C. Following three washes with PBS, cells were next incubated with fluorescent secondary antibodies diluted in blocking solution for 1 h at room temperature. Following another 3 PBS washes, nuclei were counterstained with DAPI (ThermoFisher) and then coverslips were mounted on slides using fluorescence mounting medium (DAKO) and sealed using clear nail varnish.
Confocal images of primary cortical neurons, dopaminergic neurons, and LAMP1 staining within the SN were processed using Imaris software (Oxford instruments). Z stacks were projected to give a 3D reconstruction of the field of view and mean pixel intensity per GFP^+ cell (or RFP^+ cell for V1S/SV2 experiments) was calculated for a-syn or LAMP1 signal using the software's surfaces module. For LAMP1 staining within the SN, the number of LAMP1^+ puncta within GFP^+ cells was calculated for each field of view; 3 fields of view were imaged/animal.

[2] = test system: SNCA triplication fibroblasts; test: SNCA triplication fibroblasts from a PD patient transduced with AAV peptides; assay type: cell-based, human
Description: HEK293T cells, tet-off split luciferase a-syn cells, tet-off parent cells and SH-SY5Y cell lines were maintained in DMEM (ATCC) supplemented with 10% FBS and 1% pen/strep/glutamine, and the appropriate selection antibiotics when required. tet-off split luciferase a-syn cells and tet-off parent cells were kept with doxycycline at 1 ng/mL for inhibition of gene expression. SNCA triplication fibroblasts were obtained from NINDS (National Institute of Neurological Disorders and Stroke) and maintained in DMEM supplemented with 10% FBS and 1% pen/strep/glutamine. HA antibodies were obtained from Santa Cruz (7392) and Flag antibodies were purchased from Sigma (A8592). GFP antibodies were purchased from Abcam (ab290).
The Lysosome Intracellular Activity Assay kit was purchased from Abcam and used per manufacturer's instructions (ab234622). […] For HEK293 cells, cells were re-suspended in PBS containing DMSO or Leupeptin and analyzed by FACS. […]
After fixation, cells were permeabilized with 0.2% Triton X-100 for 15 min, washed 3 times with PBS and then incubated with blocking solution (1% BSA, 22.52 mg/mL glycine, 0.1% Tween-20 in PBS) for 1 h. […] Following another 3 PBS washes, nuclei were counterstained with DAPI (ThermoFisher) and then coverslips were mounted on slides using fluorescence mounting medium (DAKO) and sealed using clear nail varnish.

## DEEIERQLKALG [PDpep1.3]
[1]; neurons with V1S and SV2 or V1S alone (WT a-syn), RFP-tagged peptide vs Scramble1.3
  total a-syn fluorescence: significant lowering
[1]; rat cortical neurons expressing human A53T a-syn
  LAMP1 levels: restored LAMP1 levels
[1]; rat primary cortical neurons
  YFP fluorescence from co-expressed V1S and SV2 (a-syn oligomers): reduced YFP fluorescence
  endogenous a-syn fluorescence intensity: reduced fluorescence intensity
  total A53T a-syn protein levels by immunoblotting of neuronal lysates: reduction
[1]; rat primary cortical neurons, AAV A53T a-syn plus GFP-tagged peptide, vs Scramble1.3
  A53T a-syn fluorescence intensity: significant decrease
[1]; rat primary cortical neurons, control
  fluorescence of YFP alone: no effect
[1]; rat primary cortical neurons, vs Scramble1.3
  levels of truncated A53T a-syn lacking amino acids 103-140 (HA immunostaining): did not reduce
[2]
  lysosomal activity (lysosomal flux assay): increased lysosomal activity
[2]; RFP-tagged peptides, vs Scramble1.3
  a-syn fluorescence: reduced a-syn fluorescence
